Laboratory results taken from patent publication US7728040B1, “Polyamine conjugates as selective NMDA inhibitors and anti-cancer drugs” (University of Central Florids Research Foundation, Inc., priority 2002, dated 2010).
pIC50, pKi: −log10 of the molar value. Structures can show the parent of a compound that is named as a salt. Where two headings read alike, the source gives them in different places.

Key:
[1] = tested on: CHO-MG cells; test: Cytotoxicity in CHO-MG cells (polyamine-transport deficient); type: cell-based, Chinese hamster; settings: Cricetulus griseus, read-out: CHO-MG IC50
[2] = tested on: CHO cells; test: Cytotoxicity in CHO cells (active polyamine transporter); type: cell-based, Chinese hamster; settings: for pIC50: Cricetulus griseus, CHO, read-out: CHO IC50; for CHO-MG/CHO IC50 ratio: selectivity for cells with active polyamine transporter
[3] = tested on: L1210 cells; test: Cytotoxicity in L1210 cells; type: cell-based; settings: Mus musculus
[4] = tested on: polyamine transporter; test: Ki, affinity for the polyamine transporter in L1210 cells; type: binding, mouse
Method: Biological Evaluation. Three cell lines were chosen for bioassay. L1210 (mouse leukemia) cells were selected for comparison with the published IC50 and Ki values determined for a variety of polyamine substrates. In this regard both Ki and IC50 values were measured in this line for comparison purposes. Chinese hamster ovary (CHO) cells were chosen along with a mutant cell line (CHO-MG) in order to comment on polyamine transporter affinity and cell selectivity. The CHO-MG cell line is polyamine-transport deficient and was isolated after chronic selection for growth resistance to methylglyoxalbis (guanylhydrazone). For the purposes of this study, the CHO-MG cell line represents cells with limited polyamine transport activity. In contrast, the parent CHO cell line illustrates cell types with active polyamine transport. Comparison of efficacy in these two lines provided an important screen to detect conjugate delivery via the polyamine transporter, PAT. For example, a conjugate with high utilization of the transporter would be very toxic to CHO cells, but less so to CHO-MG cells. Therefore, IC50 determination in these two CHO lines provided a relative ranking of delivery via the PAT.

[5] = tested on: L1210 cells + DFMO; test: Cytotoxicity in L1210 cells pretreated with DFMO; type: cell-based, mouse; settings: for pIC50: Mus musculus; for L1210/(L1210 + DFMO) IC50 ratio: fold more toxic in the presence of DFMO
[6] = polyamine-transport deficient line
[7] = L1210 cells, no DFMO, read-out: L1210 IC50
[8] = L1210 cells pretreated with DFMO, read-out: L1210 + DFMO IC50

| SMILES | pIC50 [1, 6] | pIC50 ([2]; active polyamine transporter) | CHO-MG/CHO IC50 ratio [2] | pIC50 [3, 7] | pKi [4] | pIC50 [5, 8] | L1210/(L1210 + DFMO) IC50 ratio [5] | CHO-MG/CHO IC50 ratio ([2]; listed as 27c, Trihydrochloride) | CHO-MG/CHO IC50 ratio ([2]; trihydrochloride) | pIC50 [1] | pIC50 [2] | pIC50 ([3]; L1210, read-out: L1210 IC50) | pIC50 ([5]; L1210, read-out: L1210 + DFMO IC50) |
| --- | --- | --- | --- | --- | --- | --- | --- | --- | --- | --- | --- | --- | --- |
| Cl.Cl.Cl.NCCCN(CCCN)Cc1c2ccccc2cc2ccccc12 [Compound 8b, N-(3-Amino-propyl)-N-anthracen-9-ylmethyl-propane-1,3-diamine, trihydrochloride] | 5.47 | 5.72 | 1.8 | 5.74 | 4.48 | 5.85 | 1.3 |  |  |  |  |  |  |
| Cl.Cl.Cl.NCCCCNCCCNCc1c2ccccc2cc2ccccc12 [Compound 8c, N^1-{3-[(Anthracen-9-ylmethyl)-amino]-propyl}-butane-1,4-diamine, trihydrochloride] | 5.06 | 5.60 | 3.5 | 6.15 | 5.60 | 6.52 | 2.3 |  |  |  |  |  |  |
| Cl.Cl.Cl.NCCCCN(CCCN)Cc1c2ccccc2cc2ccccc12 [Compound 8d, N-(3-Amino-propyl)-N-anthracen-9-ylmethyl-butane-1,4-diamine, trihydrochloride] | 5.02 | 6.40 | 24 | 6.40 | 5.21 | 6.70 | 2 |  |  |  |  |  |  |
| Cl.Cl.Cl.NCCCCCN(CCCN)Cc1c2ccccc2cc2ccccc12 [Compound 8f, N-(3-Amino-propyl)-N-anthracen-9-ylmethyl-pentane-1,5-diamine, trihydrochloride] | 5.00 | 5.39 | 2.5 | 5.89 | 5.30 | 6.15 | 1.9 |  |  |  |  |  |  |
| Cl.Cl.Cl.NCCCCCN(CCCCN)Cc1c2ccccc2cc2ccccc12 [Compound 8g, N-(4-Amino-butyl)-N-anthracen-9-ylmethyl-pentane-1,5-diamine, trihydrochloride] | 4.24 | 5.82 | 38 | 6.40 | 5.77 | 6.52 | 1.3 |  |  |  |  |  |  |
| NCCCCNCCCNCCCNCc1c2ccccc2cc2ccccc12 [Compound 13a, N^1-{3-[3-(Anthracen-9-ylmethyl)-amino]-propylamino}-butane-1,4-diamine Tetrahydrochloride] | 4.38 | 4.36 | 0.9 | 4.66 | 6.97 | 4.66 | 1 |  |  |  |  |  |  |
| Cl.Cl.Cl.Cl.NCCCCCN(CCCCN)CCCNCc1c2ccccc2cc2ccccc12 [Compound 13d, N-(4-Amino-butyl)-N-{3-[(anthracen-9-ylmethyl)-amino]-propyl}-pentane-1,5-diamine Tetrahydrochloride] | 4.38 | 4.46 | 1.2 | 4.97 | 7.05 | 5.14 | 1.5 |  |  |  |  |  |  |
| Cl.Cl.Cl.Cl.NCCCCN(CCCCNCCCN)Cc1c2ccccc2cc2ccccc12 [Compound 13e, N-[4-(3-Amino-propylamino)-butyl]-N-anthracen-9-ylmethyl-butane-1,4-diamine Tetrahydrochloride] | 5.55 | 5.40 | 0.7 | 5.37 | 7.13 | 6.22 | 7.2 |  |  |  |  |  |  |
| Cl.Cl.Cl.Cl.NCCCCNCCCCN(CCCCN)Cc1c2ccccc2cc2ccccc12 [Compound 13f, N-[4-(4-Amino-butylamino)-butyl]-N-anthracen-9-ylmethyl-butane-1,4-diamine Tetrahydrochloride] | 4.48 | 4.97 |  | 5.12 | 7.29 | 5.80 | 4.7 |  |  |  |  |  |  |
| Cl.Cl.Cl.Cl.NCCCCCN(CCCCNCCCN)Cc1c2ccccc2cc2ccccc12 [Compound 13g, N-[4-(3-Amino-propylamino)-butyl]-N-anthracen-9-ylmethyl-pentane-1,5-diamine Tetrahydrochloride] | 4.47 | 4.74 | 1.9 | 5.19 | 7.00 | 5.68 | 3 |  |  |  |  |  |  |
| Cl.Cl.Cl.Cl.NCCCCCN(CCCCNCCCCN)Cc1c2ccccc2cc2ccccc12 [Compound 13h, N-[4-(4-Amino-butylamino)-butyl]-N-anthracen-9-ylmethyl-pentane-1,5-diamine Tetrahydrochloride] | 4.51 | 5.00 |  | 5.14 | 7.19 | 5.42 | 1.9 |  |  |  |  |  |  |
| Cl.Cl.Cl.Cl.NCCCCCN(CCCCCNCCCCN)Cc1c2ccccc2cc2ccccc12 [Compound 13i, N-[5-(4-Amino-butylamino)-pentyl]-N-anthracen-9-ylmethyl-pentane-1,5-diamine Tetrahydrochloride] | 5.24 | 5.40 | 1.4 | 5.15 | 7.19 | 5.37 | 1.7 |  |  |  |  |  |  |
| Cl.Cl.Cl.NCCCCNCCCCNCc1ccccc1 [Compound 27a, N-(4-Amino-butyl)-N′-benzene-1-ylmethyl-butane-1,4-diamine Trihydrochloride] | < 3.00 | < 3.00 |  | 4.44 | 5.35 | 3.38 | 0.1 |  |  |  |  |  |  |
| Cl.Cl.Cl.NCCCCNCCCCNCc1cccc2ccccc12 [Compound 27b, N-(4-Amino-butyl)-N′-naphthalen-1-ylmethyl-butane-1,4-diamine Trihydrochloride] | < 4.00 | 6.22 |  | 6.30 | 5.42 | 6.37 | 1.1 | >164 | > 164 |  |  |  |  |
| Cl.Cl.Cl.NCCCCNCCCCNCc1ccc2ccc3cccc4ccc1c2c34 [Compound 27d, N-(4-Amino-butyl)-N′-pyren-1-ylmethyl-butane-1,4-diamine Trihydrochloride] |  |  | 34 |  | 5.54 |  | 1.1 |  |  | 4.81 | 6.34 | 6.40 | 6.44 |
| Cl.Cl.Cl.NCC(O)CNCCCCNCc1c2ccccc2cc2ccccc12 (stereo not drawn) [Compound 30, 1-Amino-3-{4-[(anthracen-9-ylmethyl)-amino]-butylamino}-propan-2-ol Trihydrochloride] | 5.02 | 5.04 | 1 | 5.82 | 4.90 | 5.64 | 0.7 |  |  |  |  |  |  |
| Cl.Cl.Cl.NC1CCC(NCCCCNCc2c3ccccc3cc3ccccc23)CC1 (stereo not drawn) [Compound 31, N-{4-[(Anthracen-9-ylmethyl)-amino]-butyl}-cyclohexane-1,4-diamine Trihydrochloride] | 4.76 | 5.60 | 7 | 6.00 | 5.42 | 6.15 | 1.4 |  |  |  |  |  |  |
